# Reference: patent publication US9617256B2 (priority 2007, dated 2017)
# Experiments:
# [1] = tested on: ASAU001 (laboratory strain of S. aureus, ATCC29213); test: MIC broth microdilution, ASAU001; assay type: cell-based; settings: for MIC: Staphylococcus aureus, ATCC29213, read-out: MIC ASAU001
# Summary of the method: (§1)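 MICs come from broth microdilution in cation-adjusted Mueller-Hinton broth, final inoculum 3×10^5–7×10^5 CFU/mL, 18-24 hours at 35° C. Levofloxacin and QC strains served as assay controls.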
# [2] = tested on: APAE001 (ATCC27853); test: MIC broth microdilution, APAE001; assay type: cell-based, P. aeruginosa; settings: for MIC: Pseudomonas aeruginosa, ATCC27853, read-out: MIC APAE001, APAE001 is ATCC27853
# Summary of the method: as §1
# [3] = tested on: APAE006 (strain of P. aeruginosa in which all efflux pumps are inactivated); test: microbe, parasite or virus in culture; assay type: cell-based; settings: for MIC: Pseudomonas aeruginosa, read-out: MIC APAE006, P. aeruginosa, all efflux pumps inactivated
# Summary of the method: (§2)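 Incubation: 35° C., ambient air, 18-24 h. Medium: cation-adjusted Mueller-Hinton broth with 2-fold serial dilutions of drug. Inoculum: 3×10^5–7×10^5 CFU/mL final, per CLSI microdilution method.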
# [4] = tested on: AECO001 HSA AGP; test: MIC broth microdilution, AECO001 HSA AGP; assay type: cell-based, E. coli; settings: for MIC: Escherichia coli
# Summary of the method: as §1
# [5] = tested on: AECO063 (ATCC25922 bearing an acrAB mutation); test: microbe, parasite or virus in culture; assay type: cell-based, E. coli; settings: for MIC: Escherichia coli, ATCC25922, read-out: MIC AECO063
# Summary of the method: as §1
# [6] = tested on: APAE006 in the presence of 8 micrograms per milliliter of polymyxin B nonapeptide; assay type: cell-based, P. aeruginosa; settings: in the presence of 8 micrograms per milliliter of polymyxin B nonapeptide
# Summary of the method: as §2
# [7] = tested on: AABA1060 (clinical isolate of Acinetobacter baumannii); test: MIC broth microdilution, AABA1060; assay type: cell-based; settings: for MIC: Acinetobacter baumannii, read-out: MIC AABA1060
# Summary of the method: as §1
# [8] = tested on: AECO001 (ATCC25922); test: MIC broth microdilution, AECO001; assay type: cell-based, E. coli; settings: for MIC: Escherichia coli, ATCC25922, read-out: MIC AECO001
# Summary of the method: as §1
SMILES,MIC [1],MIC [2],MIC [3],MIC [4],MIC [5],MIC APAE006 + PMBN [6],MIC [7],MIC [8],MIC ASAU001 ([1]; S. aureus ATCC29213),MIC APAE001 ([2]; APAE001 is ATCC27853),"MIC APAE006 ([3]; P. aeruginosa, all efflux pumps inactivated)",MIC AECO001 HSA AGP [4],MIC AECO063 ([5]; ATCC25922 bearing an acrAB mutation),MIC AABA1060 ([7]; clinical isolate of Acinetobacter baumannii),MIC AECO001 ([8]; AECO001 is ATCC25922)
"C[C@@H](N)[C@H](NC(=O)c1ccc(C#Cc2ccc(CNCC(F)F)cc2)cc1)C(=O)NO [Example 119-1, N-((1S,2R)-2-Amino-1-hydroxycarbamoyl-propyl)-4-{4-[(2,2-difluoro-ethylamino)-methyl]-phenylethynyl}-benzamide]",16 to 64 µg/mL,< 2 µg/mL,< 2 µg/mL,2 to 16 µg/mL,< 2 µg/mL,A (MIC's of 2.0 μg/mL or less = A),2 to 16 µg/mL,< 2 µg/mL,,,,,,,
C[C@@H](N)[C@H](NC(=O)c1ccc(C#Cc2ccc(CNC3CCC3)cc2)cc1)C(=O)NO [Example 119-2],> 64 µg/mL,< 2 µg/mL,< 2 µg/mL,16 to 64 µg/mL,2 to 16 µg/mL,A (MIC's of 2.0 μg/mL or less = A),> 64 µg/mL,2 to 16 µg/mL,,,,,,,
C[C@@H](N)[C@H](NC(=O)c1ccc(C#Cc2ccc(CNCc3nccn3C)cc2)cc1)C(=O)NO [Example 119-3],> 64 µg/mL,2 to 16 µg/mL,< 2 µg/mL,2 to 16 µg/mL,< 2 µg/mL,A (MIC's of 2.0 μg/mL or less = A),16 to 64 µg/mL,2 to 16 µg/mL,,,,,,,
CCNCc1ccc(C#Cc2ccc(C(=O)N[C@H](C(=O)NO)[C@@H](C)N)cc2)cc1 [Example 119-6],16 to 64 µg/mL,< 2 µg/mL,< 2 µg/mL,2 to 16 µg/mL,< 2 µg/mL,A (MIC's of 2.0 μg/mL or less = A),16 to 64 µg/mL,2 to 16 µg/mL,,,,,,,
"CCOCc1ccc(C#Cc2ccc(C(=O)N[C@H](C(=O)NO)[C@@H](C)N)cc2)cc1 [Example 120-1, N-((1S,2R)-2-Amino-1-hydroxycarbamoyl-propyl)-4-(4-ethoxymethyl-phenylethynyl)-benzamide]",16 to 64 µg/mL,< 2 µg/mL,< 2 µg/mL,2 to 16 µg/mL,< 2 µg/mL,A (MIC's of 2.0 μg/mL or less = A),2 to 16 µg/mL,< 2 µg/mL,,,,,,,
C[C@@H](N)[C@H](NC(=O)c1ccc(C#Cc2ccc(CS(C)(=O)=O)cc2)cc1)C(=O)NO [Example 120-2],16 to 64 µg/mL,2 to 16 µg/mL,< 2 µg/mL,16 to 64 µg/mL,< 2 µg/mL,A (MIC's of 2.0 μg/mL or less = A),16 to 64 µg/mL,2 to 16 µg/mL,,,,,,,
C[C@@H](N)[C@H](NC(=O)c1ccc(C#Cc2ccc(CCO)cc2)cc1)C(=O)NO [Example 120-3],> 64 µg/mL,< 2 µg/mL,< 2 µg/mL,2 to 16 µg/mL,< 2 µg/mL,A (MIC's of 2.0 μg/mL or less = A),2 to 16 µg/mL,< 2 µg/mL,,,,,,,
"O=CN(O)CCNC(=O)c1ccc(C#Cc2ccc(CN3CCOCC3)cc2)cc1 [Example 127-1, N-[2-(Formyl-hydroxyamino)-ethyl]-4-(4-morpholin-4-ylmethyl-phenylethynyl)-benzamide]",> 64 µg/mL,> 64 µg/mL,16 to 64 µg/mL,16 to 64 µg/mL,2 to 16 µg/mL,C (MIC's of greater than 16.0 μg/mL to 64.0 μg/mL = C),> 64 µg/mL,16 to 64 µg/mL,,,,,,,
"O=CN(O)CC(CO)NC(=O)c1ccc(C#Cc2ccc(CN3CCOCC3)cc2)cc1 (stereo not shown) [Example 128-1, N-[2-(Formyl-hydroxy-amino)-1-hydroxymethyl-ethyl]-4-(4-morpholin-4-yl-methyl-phenylethynyl)-benzamide]",,,,,,C (MIC's of greater than 16.0 μg/mL to 64.0 μg/mL = C),,,C (MIC's of greater than 16.0 μg/mL to 64.0 μg/mL = C),C (MIC's of greater than 16.0 μg/mL to 64.0 μg/mL = C),C (MIC's of greater than 16.0 μg/mL to 64.0 μg/mL = C),C (MIC's of greater than 16.0 μg/mL to 64.0 μg/mL = C),C (MIC's of greater than 16.0 μg/mL to 64.0 μg/mL = C),C (MIC's of greater than 16.0 μg/mL to 64.0 μg/mL = C),C (MIC's of greater than 16.0 μg/mL to 64.0 μg/mL = C)
"C[C@@H](N)[C@H](NC(=O)c1ccc(C#Cc2ccc(CN)cc2)cc1)C(=O)NO [Example 131-1, N-((1S,2R)-2-Amino-1-hydroxycarbamoyl-propyl)-4-(4-aminomethyl-phenylethynyl)-benzamide]",> 64 µg/mL,2 to 16 µg/mL,< 2 µg/mL,> 64 µg/mL,16 to 64 µg/mL,A (MIC's of 2.0 μg/mL or less = A),> 64 µg/mL,16 to 64 µg/mL,,,,,,,
C[C@@H](N)[C@H](NC(=O)c1ccc(C#Cc2ccc(CNS(C)(=O)=O)cc2)cc1)C(=O)NO [Example 131-2],> 64 µg/mL,< 2 µg/mL,< 2 µg/mL,16 to 64 µg/mL,< 2 µg/mL,A (MIC's of 2.0 μg/mL or less = A),16 to 64 µg/mL,2 to 16 µg/mL,,,,,,,
